# Test results from US20120309706A1, “COMBINED TREATMENT OF PANCREATIC CANCER WITH GEMCITABINE AND MASITINIB” (AB SCIENCE, priority 2010, published 2012).
# Where two headings read alike, the source gives them in different places. Marks after values point to notes of the source that are not given here.
# Assays:
# pancreatic cancer = conditions: cited from earlier work
# Mia Paca-2 cells [1] = assay: Gene expression profiling (Affymetrix U133 Plus 2.0 microarrays) and pathway analysis; format: cell-based, human; conditions: for down-regulated genes / up-regulated genes: fold-change threshold of 2; for deregulated genes: fold-change threshold of 2, treated/untreated; for deregulated genes specific to the treatment: pathway analysis, Ingenuity
# Description: Gene expression profiling of cell lines (from 2 μg RNA) was assessed using whole-genome Affymetrix U133 Plus 2.0 human oligonucleotide microarrays. Generation of expression matrices, data annotation, filtering and processing have been previously described [Giroux V et al., 2006 Clin Cancer Res 12: 235-241]. Microarray statistics and cluster analysis were performed by the Robust Multichip Average method in R using Bioconductor and using the Cluster and TreeView programs. Drug response signatures were generated by differential analysis, which compared the expression profile of each treated cell line with that of the untreated cell line by measuring the fold-change (treated/untreated) of each probe set. The lists of differential genes were interrogated using the Ingenuity Pathway Analysis software (Version 5.5.1-1002; Ingenuity Systems, Redwood City, Calif.) with a significance threshold for the corrected p-value<0.05. MIAME compliant array data can be accessed at (www.ebi.ac.uk/arrayexpress) using the accession number GSE17987.
# Whole-genome clustering of the four cell samples sorted them into two opposite clusters (data not shown). The two treatment conditions with gemcitabine clustered together (left cluster), whereas cells treated with masitinib alone clustered with the untreated cells (right cluster). […] This was confirmed by the differential analysis of expression profile. […] These drug response expression signatures were characterised via pathway analysis using Ingenuity software. […] This pathway is involved in pancreatic development and re-activation of this signalling system has been implicated in pancreatic carcinoma with reported nuclear localisation of the downstream effector β-catenin. […] Three other pathways altered to a lesser extent included: ERK/MAPK Signalling, CDK5 Signalling, and PI3K/AKT Signalling (p=0.016, 0.025, 0.039, respectively).
# Mia Paca-2 = assay: WST-1 proliferation/survival assay, Mia Paca-2; format: cell-based, human; conditions: for IC50: Homo sapiens; for response of Mia Paca-2 cells to gemcitabine after pre-incubation with TKI: 10 μM imatinib or dasatinib, compared to masitinib
# Description: (§1) Sensitivity of pancreatic tumour cell lines to masitinib or gemcitabine as single agents, or in combination, was assessed using WST-1 proliferation assays. Four cell lines were tested for their sensitivity to masitinib (A) or gemcitabine (B). […] (D) Sensitivity of resistant Mia Paca-2 cells to various tyrosine kinase inhibitors alone (top) or in combination with gemcitabine (bottom) was analyzed in WST-1 proliferation assays.
# (§2) Pancreatic cancer cells lines (Mia Paca-2, Panc-1, BxPC-3 and Capan-2) were obtained from Dr. Juan Iovanna (Inserm, France). Cells were maintained in RPMI (BxPC-3, Capan-2) or DMEM (Mia Paca-2, Panc-1) medium containing glutamax-1 (Lonza), supplemented with 100 U/ml penicillin/100 μg/ml streptomycin, and 10% foetal calf serum (FCS) (AbCys, Lot S02823S1800). Expression of tyrosine kinases was determined by RT-PCR using Hot Star Taq (Qiagen GmbH, Hilden, Germany) in a 2720 Thermal Cycler (Applied Biosystems).
# (§3) Cytotoxicity of masitinib and gemcitabine was assessed using a WST-1 proliferation/survival assay (Roche diagnostic) in growth medium containing 1% FCS. Treatment was started with the addition of the respective drug. […] After 72 hours WST-1 reagent was added and incubated with the cells for 4 hours before absorbance measurement at 450 nm in an EL800 Universal Microplate Reader (Bio-Tek Instruments Inc.). Media alone was used as a blank and proliferation in the absence of compounds served as positive control. Results are representative of three/four experiments. The masitinib sensitisation index is the ratio of the IC50 of gemcitabine against the IC50 of the drug combination.
# Comparison of masitinib to other TKIs for their potential to sensitize gemcitabine-resistant pancreatic cancer cells: Similar TKI plus gemcitabine combination experiments to those described above were performed with gemcitabine-resistant Mia Paca-2 cells to compare masitinib with imatinib (Gleevec™, STI-571; Novartis, Basel, Switzerland), a TKI targeting ABL, PDGFR, and c-Kit); and dasatinib (Sprycel, Bristol-Myers Squibb), a TKI targeting SRC, ABL, PDGFR, and c-Kit.
# Capan-2 = assay: WST-1 proliferation/survival assay, Capan-2; format: cell-based, human; conditions: Capan-2, single agent, 1% FCS
# Description: as §1, §2, §3
# [2] = system: Mia Paca-2 pancreatic tumours; assay: Nog-SCID mouse model of human pancreatic cancer; format: in vivo, Nog-SCID mice; conditions: for Tumour volume, Median: following 28 days of treatment (day 56)
# Description: Mia Paca-2 tumour cells (10^7) were injected into the flank of Nog-SCID mice. Treatment was initiated 28 days after tumour cell injection. The different groups were treated with either: twice weekly injections of gemcitabine (i.p. 50 mg/kg), daily oral masitinib (100 mg/kg), water (control), or combined daily oral masitinib (100 mg/kg) and twice weekly injections of gemcitabine. Mice were treated for 56 days.
# Male Nog-Scid mice (7 weeks old) were obtained from internal breeding and were housed under specific pathogen-free conditions at 20±1° C. in a 12-hour light/12-hour dark cycle and ad libitum access to food and filtered water. Mia Paca-2 cells were cultured as described above. At day 0 (D0), mice were injected with 107 Mia Paca-2 cells in 200 μl PBS into the right flank. Tumours were allowed to grow for 1.5 to 4 weeks until the desired tumour size was reached (˜200 mm3). At day 28, animals were allocated into four treatment groups (n=7 to 8 per group), ensuring that each group's mean body weight and tumour volume were well matched, and treatment was initiated for a duration of 4 to 5 weeks. Treatments consisted of either: a) daily sterile water for the control group, b) an intraperitoneal (i.p.) injection of 50 mg/kg gemcitabine twice a week, c) daily gavage with 100 mg/kg masitinib, or d) combined i.p injection of 50 mg/kg gemcitabine twice a week and daily gavage with 100 mg/kg masitinib. Tumour size was measured with callipers and tumour volume was estimated using the formula: volume=(length×width2)/2. The tumour growth inhibition ratio was calculated as (100)×(median tumour volume of treated group)/(median tumour volume of control group).
# Relative changes in tumour volumes were compared between treatment groups using a variance analysis (ANOVA). Normality of relative changes in tumour volumes between day 28 and day 56 was first tested using the Shapiro-Wilk test of normality. […]
# The tumour size was monitored every 7 days until day 56, after which time the animals were sacrificed.
# BxPC-3 = assay: WST-1 proliferation/survival assay, BxPC-3; format: cell-based, human; conditions: BxPC-3, single agent, 1% FCS
# Description: as §1, §2
# Cytotoxicity of masitinib and gemcitabine was assessed using a WST-1 proliferation/survival assay (Roche diagnostic) in growth medium containing 1% FCS. Treatment was started with the addition of the respective drug. […] After 72 hours WST-1 reagent was added and incubated with the cells for 4 hours before absorbance measurement at 450 nm in an EL800 Universal Microplate Reader (Bio-Tek Instruments Inc.). […]
# Panc-1 = assay: WST-1 proliferation/survival assay, Panc-1; format: cell-based; conditions: Homo sapiens
# Description: as §1, §2, §3
# [3] = Masitinib clearance half-life; conditions: human, in vivo
# Excerpt: At the cut-off date for safety (17 Oct. 2008), all 22 patients enrolled had experienced at least one dose of masitinib. […] One patient reported a masitinib-related grade 4 neutropenia. The most common masitinib-related, haematological grade 3 AEs were anaemia (22.7%), lymphopenia (22.7%), neutropenia (18.2%) and leucopoenia (18.2%). The most common, masitinib-related, non-haematological grade 3 AE was asthenia (13.6% of patients). […] One patient's death was reported to be due to several AEs (two syncopes, severe abdominal pain, hypotension, grade 2 anemia, acute renal failure and respiratory distress syndrome) and was suspected to be related to masitinib at the time of occurrence. However, masitinib had been interrupted for 6 days before these fatal AEs occurred. […] Thus, the death of this patient is most unlikely related to masitinib. Four other deaths occurred during this study but none were suspected to be treatment related.
# Mia Paca-2 cells [4] = assay: In vitro tyrosine phosphorylation assay (western blot, anti-pTyr); format: cell-based, human; conditions: 6 hours, at 1 μM and beyond
# Description: (A) Messenger RNA expression of various receptor and cytoplasmic tyrosine kinases was analyzed by RT-PCR. Universal human reference total RNA was used as positive control for primers and the ubiquitous β-glucoronidase (GUS) served as an internal control for all RT-PCR reactions. (B) Tyrosine phosphorylation of proteins in response to masitinib. Mia Paca-2 cells (5×10^6) were treated for 6 hours at 37° C. with various concentrations of masitinib. Total cell lysates were prepared and tyrosine phosphorylation was analyzed by western blot with antibodies against phosphotyrosine (anti-pTyr). […] MW=molecular weight. […] Proteins (20 μg) were resolved by SDS-PAGE 10%, followed by western blotting and immunostaining. The following primary antibodies were used: rabbit anti-phospho-GRB2 antibody (sc-255 1:1000, Santa Cruz, Calif.), and anti-phosphotyrosine antibody (4G10 1:1000, Cell Signalling Technology, Ozyme, France). […] Immunoreactive bands were detected using enhanced chemiluminescent reagents (Pierce, USA). To estimate the range of masitinib concentration necessary to sensitize pancreatic tumor cell lines to chemotherapy, we assessed the ability of masitinib to block protein tyrosine phosphorylation by western blot analysis in cell lysates. […]
# FAK = FAK (Homo sapiens, UniProt Q05397); assay: FAK activity, preliminary in vitro data; format: biochemical
# FAK, sequence (Q05397 whole entry): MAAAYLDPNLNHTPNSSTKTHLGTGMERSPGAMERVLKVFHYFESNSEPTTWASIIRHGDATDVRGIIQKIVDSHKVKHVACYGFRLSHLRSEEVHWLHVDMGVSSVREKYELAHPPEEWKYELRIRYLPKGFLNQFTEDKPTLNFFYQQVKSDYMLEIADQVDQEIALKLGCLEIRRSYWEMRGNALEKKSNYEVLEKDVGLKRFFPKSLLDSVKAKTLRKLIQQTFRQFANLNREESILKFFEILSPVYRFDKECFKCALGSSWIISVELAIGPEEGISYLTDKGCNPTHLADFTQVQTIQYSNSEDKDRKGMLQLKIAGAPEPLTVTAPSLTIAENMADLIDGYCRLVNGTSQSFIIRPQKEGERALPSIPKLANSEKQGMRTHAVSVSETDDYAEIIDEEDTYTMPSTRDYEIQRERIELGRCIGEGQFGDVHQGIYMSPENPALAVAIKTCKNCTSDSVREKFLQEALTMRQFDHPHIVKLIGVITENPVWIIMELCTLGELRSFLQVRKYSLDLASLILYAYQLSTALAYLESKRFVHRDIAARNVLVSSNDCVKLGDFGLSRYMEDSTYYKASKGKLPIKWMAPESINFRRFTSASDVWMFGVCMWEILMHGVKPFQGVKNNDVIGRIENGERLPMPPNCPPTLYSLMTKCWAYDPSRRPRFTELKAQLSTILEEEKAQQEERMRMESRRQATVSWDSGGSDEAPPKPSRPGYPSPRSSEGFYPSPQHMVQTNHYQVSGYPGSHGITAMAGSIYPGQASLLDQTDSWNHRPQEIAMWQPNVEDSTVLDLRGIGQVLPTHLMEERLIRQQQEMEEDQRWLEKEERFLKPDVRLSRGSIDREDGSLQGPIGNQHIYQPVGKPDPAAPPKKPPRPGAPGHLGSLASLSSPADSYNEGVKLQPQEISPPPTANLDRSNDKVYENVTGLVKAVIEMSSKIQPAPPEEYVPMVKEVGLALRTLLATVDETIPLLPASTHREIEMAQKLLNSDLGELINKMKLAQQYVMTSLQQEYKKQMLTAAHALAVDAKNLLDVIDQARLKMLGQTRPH
# Excerpt: Altogether, this could provide a mechanism of action for masitinib on pancreatic cancer through the reduction of tumour progression or the inhibition of mast cell migration and activation, or both.
# [5] = Mia Paca-2, single agent, 72 hours, 1% FCS, read-out: IC50
# [6] = Panc-1, single agent, 72 hours, 1% FCS, read-out: IC50
smiles,measurement,setting,value
"Nc1ccn(C2OC(CO)C(O)C2(F)F)c(=O)n1 (centres unmarked) [Gemcitabine, 4-amino-1-[3,3-difluoro-4-hydroxy-5-(hydroxymethyl)tetrahydrofuran-2-yl]-1H-pyrimidin-2-one]",medium TTP,"pancreatic cancer; Burris et al. 1997, advanced pancreatic population (locally advanced and metastatic)",2.33 months
same,TTP threshold,"pancreatic cancer; Storniolo et al. 1999, solely locally advanced patients",4.1 months
same,1-year survival rate,"pancreatic cancer; clinical trial of erlotinib plus gemcitabine versus gemcitabine monotherapy, p=0.023",17%
same,median OS,pancreatic cancer; clinical trial of erlotinib plus gemcitabine versus gemcitabine monotherapy,5.91 months
same,"12-month survival rates, published",pancreatic cancer; comparison,21%
same,"median OS, published",pancreatic cancer; comparison,6 months
same,1-year survival rate,pancreatic cancer; standard gemcitabine therapy,21%
same,median overall survival (OS),"pancreatic cancer; standard gemcitabine therapy, locally advanced, unresectable, or metastatic pancreatic adenocarcinoma",6 months
same,down-regulated genes,Mia Paca-2 cells [1],113 genes
same,up-regulated genes,Mia Paca-2 cells [1],1048 genes
same,deregulated genes,Mia Paca-2 cells [1],1161 genes
same,deregulated genes specific to the treatment,Mia Paca-2 cells [1],818 genes
same,IC50,"Mia Paca-2; Mia Paca-2, gemcitabine monotherapy, read-out: IC50 (resistance)",> 2500 µM
same,IC50,Mia Paca-2; [5],> 10 µM
same,IC50,Capan-2; 72 hours,2 µM
same,IC50,"Capan-2; Homo sapiens, Capan-2, 72 h",2 to 20 µM
same,tumour growth between day 35 and 49,[2]; FIG. 3,stabilization of tumour growth
same,"Tumour volume, Median",[2],662* mm^3
same,IC50,BxPC-3; 72 hours,2 to 20 µM
same,IC50,"Panc-1; Panc-1, gemcitabine monotherapy, read-out: IC50 (resistance)",> 2500 µM
same,IC50,Panc-1; [6],> 10 µM
"Cc1ccc(NC(=O)c2ccc(CN3CCN(C)CC3)cc2)cc1Nc1nc(-c2cccnc2)cs1 [Masitinib, 4-(4-methylpiperazin-1-ylmethyl)-N-[4-methyl-3-(4-pyridin-3ylthiazol-2-ylamino)phenyl]benzamide]",half-life,[3],1020 min
same,protein tyrosine phosphorylation (western blot),Mia Paca-2 cells [4],clearly inhibited tyrosine phosphorylation
same,FAK auto-activation,FAK,partially inhibits FAK auto-activation
same,reduces FAK activity,FAK; masitinib 1 μM,21%
same,down-regulated genes,Mia Paca-2 cells [1],29 genes
same,up-regulated genes,Mia Paca-2 cells [1],325 genes
same,deregulated genes,Mia Paca-2 cells [1],354 genes
same,deregulated genes specific to the treatment,Mia Paca-2 cells [1],201 genes
same,response of Mia Paca-2 cells to gemcitabine after pre-incubation with TKI,Mia Paca-2,able to restore sensitivity to gemcitabine
same,IC50,Mia Paca-2; [5],5 to 10 µM
same,IC50,"Capan-2; Homo sapiens, Capan-2, 72 h",5 to 10 µM
same,"Tumour volume, Median",[2],865 mm^3
same,IC50,"BxPC-3; Homo sapiens, BXPC-3, 72 h",5 to 10 µM
same,IC50,Panc-1; [6],5 to 10 µM
Cc1nc(Nc2ncc(C(=O)Nc3c(C)cccc3Cl)s2)cc(N2CCN(CCO)CC2)n1 [dasatinib],cells remaining resistant,"Mia Paca-2; Mia Paca-2, dasatinib alone >0.1 μM",< 50%
Cc1ccc(NC(=O)c2ccc(CN3CCN(C)CC3)cc2)cc1Nc1nccc(-c2cccnc2)n1 [imatinib],response of Mia Paca-2 cells to gemcitabine after pre-incubation with TKI,Mia Paca-2,did not result in an increased response
same,"Mia Paca-2 cell proliferation, TKI alone",Mia Paca-2; imatinib alone 10 μM,not inhibited
